Test results from PMC4403042, “Atrial-like cardiomyocytes from human pluripotent stem cells are a robust preclinical model for assessing atrial-selective pharmacology” (EMBO Molecular Medicine, 2015).

What was measured:
hESC-atrial CMs = experiment: Action potential recording (amphotericin-B-perforated patch-clamp) in hESC-atrial CMs; format: cell-based, human; conditions: for reversibility of AP changes: washout
Experimental: (§1) Spin EBs resulting from control and RA-treated differentiations were dissociated at day 17 to single cells using TrypLE™ Select (Life Technologies) and plated on gelatin-coated coverslips. Electrophysiological measurements were performed 10–14 days after dissociation from intrinsically quiescent single GFP^+ CMs that were able to contract upon field stimulation.
(§2) APs and membrane currents from hESC-CMs were recorded with the amphotericin-B-perforated patch-clamp technique at 36 ± 0.2°C using an Axopatch 200B amplifier (Molecular Devices, Sunnyvale, CA, USA). Cells were superfused with Tyrode's solution containing (in mmol/l) NaCl 140, KCl 5.4, CaCl2 1.8, MgCl2 1.0, glucose 5.5, and HEPES 5.0; pH was adjusted to 7.4 with NaOH. Pipettes (borosilicate glass; resistance 2–3 MΩ) were heat polished and filled with solution containing (in mmol/l) K-gluconate 125, KCl 20, NaCl 5, amphotericin-B 0.22 and HEPES 10; pH was adjusted to 7.2 with KOH. AP measurements were low-pass-filtered (cutoff frequency 10 kHz) and digitized at 40 kHz; membrane currents were measured at 1 and 4 kHz, respectively. Capacitance and series resistance were compensated by ≥ 80%, and APs were corrected for the calculated liquid junction potential (Barry & Lynch, [1991]). Voltage control, data acquisition and analysis were accomplished using custom software. Cell membrane capacitance (Cm) was estimated by dividing the time constant of the decay of the capacitive transient in response to 5 mV hyperpolarizing voltage clamp steps from −40 mV by the series resistance.
(§3) APs were elicited at 0.5 to 4 Hz by 3 ms, ∼1.2× threshold current pulses through the patch pipette. APs were characterized, as depicted in Fig2A, by resting membrane potential (RMP), maximum upstroke velocity (dV/dtmax), maximum AP amplitude (APAmax), AP plateau amplitude (APAplat, defined as the potential difference between RMP and potential at 20 ms after the upstroke), and the duration at 20, 50 and 90% repolarization (APD20, APD50, and APD90, respectively). Parameter values obtained from 10 consecutive APs were averaged. […]
(§4) (1:2000, Sigma) was performed in TBS-0.05% Tween 20 containing 2% nonfat milk for 1 hour at room temperature. The corresponding secondary antibody conjugated to horseradish peroxidase (HRP) (1:2000; anti-mouse-HRP (#7076), Cell Signaling) was incubated for 1 h at room temperature in 2% nonfat milk. Blots were developed on X-ray films by using a chemiluminescent detection system (ECL; GE Life Science, […]
(§5) The effects of drugs were tested in paired measurements 5 minutes after the onset of bath application. 4-AP was prepared as a 50 mmol/L stock solution in Tyrode’s solution, and pH adjusted to 7.4, with the addition of HCl. CCh, a muscarinic receptor agonist, was prepared as a 10 mmol/L stock solution in Tyrode’s solution. Nifedipine was prepared as a 10 mmol/L stock solution in DMSO and stored at 4 °C. Stock solutions for the other compounds were prepared in DMSO: Vernakalant (30 mmol/L), XEN- D0101 (3 mmol/L), XEN-R0703 (2 mmol/L) and […]. All stock solutions were diluted appropriately before use.
(§6) Recombinant ion channel pharmacology
(§7) Studies were conducted at room temperature using the whole-cell patch-clamp technique. HEK293 cells expressing Kir3.1/3.4, Kir2.1, and CHO cells expressing Nav1.2, Cav1.2 or hERG were used.

hESC-ventricular CMs = experiment: Action potential recording (amphotericin-B-perforated patch-clamp) in hESC-ventricular CMs; format: cell-based, human; conditions: 1 Hz; for APAmax / APAplat / APD20 / APD90 / dV/dtmax / APD50: hESC-VM, n=5, mean±SEM
Experimental: as §1, §2, §3, §4, §5, §6, §7

[1] = hESC-AM, vernakalant 30 μmol/l, 1 Hz, n=5, mean±SEM, Table S6
[2] = vernakalant 30 μmol/l, 1 Hz, vs pre-drug
[3] = vernakalant 30 μmol/l, Table S6
[4] = hESC-AM, CCh 10 μmol/l, 1 Hz, n=4, mean±SEM, Table S9
[5] = hESC-AM, CCh 10 μmol/l, 1 Hz, n=5, mean±SEM, Table S5
[6] = XEN-D0101 3 μmol/l, 1 Hz, vs pre-drug
[7] = hESC-AM, XEN-D0101 3 μmol/l, 1 Hz, n=5, mean±SEM, Table S7
[8] = hESC-AM, 4-AP 50 μmol/l, 1 Hz, n=5, mean±SEM, Table S5

## COc1ccc(CCO[C@@H]2CCCC[C@H]2N2CC[C@@H](O)C2)cc1OC [vernakalant]
hESC-atrial CMs; [1]
  APAmax: 80.3±2.2 mV
  APAplat: 73.6±4.9 mV
  APD20: 29.7 ± 4.0 ms
  APD50: 65.4 ± 7.7 ms
  APD90: 177.2 ± 08.2 ms
  RMP: -74.2±2.5 mV
  dV/dtmax: 40.4±3.8 V/s
hESC-atrial CMs; [2]
  increase of APAmax: > 2.5 mV
  increase of APAplat: > 20%
  prolongation of APD20: > 7.5 ms
  prolongation of APD50: > 15 ms
  prolongation of APD90: > 22 ms
hESC-atrial CMs; vernakalant 30 μmol/l
  reversibility of AP changes: nearly reversible upon washout
hESC-ventricular CMs; [3]
  APAmax: 104±2.2 mV
  APAplat: 101.3±2.8 mV
  APD20: 68.6 ± 06.8 ms
  APD90: 180.0 ± 17.7 ms
  dV/dtmax: 58.3±6.1 V/s
hESC-ventricular CMs; vernakalant 30 μmol/l
  effect on AP parameters: reduced dV/dtmax but without affecting other AP parameters

## C[N+](C)(C)CCOC(N)=O [CCh, carbachol]
hESC-atrial CMs; [4]
  APAmax: 88.9±1.4 mV
  APAplat: 72.4±3.1 mV
  APD20: 23.9 ± 4.6 ms
  APD50: 68.1 ± 7.7 ms
  APD90: 141.2 ± 12.4 ms
  dV/dtmax: 40.0±5.2 V/s
hESC-atrial CMs; [5]
  APAmax: 89.1±1.1 mV
  APAplat: 72.6±2.3 mV
  APD20: 25.4 ± 3.8 ms
  APD50: 67 ± 6 ms
hESC-ventricular CMs; CCh 10 μmol/l
  dV/dtmax: 129.9±54 V/s
hESC-ventricular CMs; CCh 10 μmol/l, Table S5
  APAmax: 104.4±9.1 mV
  APD20: 112.9 ± 18.0 ms
hESC-ventricular CMs; CCh 10 μmol/l, Table S9
  APAmax: 110.5±7.8 mV
  APAplat: 109.6±7.5 mV
  APD20: 122.9 ± 17.5 ms
  APD50: 181.2 ± 27.6 ms
  APD90: 230.6 ± 25.7 ms
  dV/dtmax: 154.8±58.3 V/s

## O=C(NCCO)C1CCCN(c2nc(NCc3ccccn3)c3c(-c4ccccc4)csc3n2)C1 (stereo not shown) [XEN-D0101]
hESC-atrial CMs; [6]
  change of APA: > 10 mV
  change of dV/dtmax: > 8 V/s
  elevation of APAplat: > 26 mV
  prolongation of APD20: > 30 ms
  prolongation of APD50: > 35 ms
  prolongation of APD90: > 23 ms
hESC-atrial CMs; XEN-D0101 3 μmol/l
  reversibility of AP changes: reversible upon washout
hESC-atrial CMs; [7]
  APAmax: 98.9±5.8 mV
  APAplat: 86.8±7.4 mV
  APD20: 55.7 ± 16.2 ms
  APD50: 91.3 ± 22.6 ms
  APD90: 156.2 ± 22.8 ms
hESC-ventricular CMs; XEN-D0101 3 μmol/l
  effect on AP parameters: did not s ignificantly alter any AP parameter
hESC-ventricular CMs; XEN-D0101 3 μmol/l, Table S7
  APAmax: 105.3±5.8 mV
  APAplat: 103.7±6.5 mV
  APD20: 101.3 ± 14.0 ms
  APD50: 158.4 ± 18.0 ms
  APD90: 237.4 ± 21.9 ms

## Nc1ccncc1 [4-AP, 4-aminopyridine]
hESC-atrial CMs; [8]
  APAmax: 94.6±3.0 mV
  APAplat: 86.4±6.5 mV
  APD20: 41.6 ± 8.1 ms
  APD50: 72 ± 13 ms
hESC-ventricular CMs; 4-AP 50 μmol/l, Table S5
  APAmax: 99.0±4.0 mV
  APAplat: 99.8±5.8 mV
  APD20: 83.1 ± 15.1 ms
  dV/dtmax: 49.9±11.1 V/s
